Earlier results as cited in US20080139514A1, “DIPHOSPHONIC ACID PHARMACEUTICAL COMPOSITIONS” (priority 2006, published 2008).
Where two headings read alike, the source gives them in different places.

Experiments:
[1] = stored at room temperature

CCCCCN(C)CCC(O)(P(=O)(O)O)P(=O)(O)O [Ibandronic acid, 3-(N-methyl-N-pentyl) amino-1-hydroxypropane-1,1-diphosphonic acid]
Solubility in organic solvents (organic solvents): practically insoluble | Solubility in water: freely soluble

CCCCCN(C)CCC(O)(P(=O)(O)O)P(=O)(O)O [ibandronate sodium, ibandronate monosodium monohydrate]
Stability on storage [1]: quite stable | Solubility in water (monosodium monohydrate): poor
